# From patent US11066368B2, “Process for the preparation and particle size reduction of pirfenidone” (Laurus Labs Limited, priority 2016, dated 2021)
# What was measured:
# Type in all cases: physicochemical
# [1] = Particle size distribution of unmilled input pirfenidone; details: input material before wet milling (Reference Example 5)
# Description: (§1) As used herein, the term “particle size distribution” is expressed in terms of D90, D50 and D10, which corresponds to the diameter of 90 percent by volume of the particles, 50 percent by volume of the particles and 10 percent by volume of the particles are present, respectively.
# (§2) The particle size distribution of pirfenidone is measured utilizing: Instrument model: Malvern; Mastersizer 3000; particle refraction index of sample: 1.700; Absorption: 0.01 and Analysis model: general purpose, normal sensitivity, non-spherical particles.
# Dissolving crude Pirfenidone (50 g) in ethyl acetate (100 mL) at 65-75° C. and the reaction mass was treated with activated carbon (5 g) and filtered through a short bed of Hyflo. The filtrate was partially concentrated, under reduced pressure while maintain temperature below 60° C. The mixture was gradually allowed to cool to 30±5° C. and then stirred for another 30-60 min. The suspension was again allowed to cool to 0-5° C. and maintained for another 2-3 h, at the same temperature. The precipitated material was filtered and then dried at 60±5° C., for 6-8 h, to afford Pirfenidone as white colored powder (HPLC purity 99.9%; dimer content 0.03%). Yield: 45 g.
# [2] = Particle size distribution after wet milling with high speed homogenizer (Silverson L5M-A); details: water
# Description: as §1, §2
# Water (300 mL) and Pirfenidone (100 gr; Particle size distribution: D10: 1330 μm; D50: 1950 μm and D90: 2840 μm) were charged into reaction vessel at 25° C. to 35° C. and was placed High speed stirrer/Homogenizer into the reaction mass till required particle size was obtained at 25° C. to 35° C. Particle size distribution of the sample with different time interval was monitored by collecting the sample from reaction mass. After achieving the required particle size, stirred the reaction mixture for 30-60 min at 25° C. to 35° C. Further, the reaction mixture temperature was allowed to cool to 0° C. to 5° C. and stirred for 2-3 hrs at same temperature. Filter the solid and washed with the wet cake with chilled water (100 mL), dried the solid in an oven under vacuum at 60° C. for 4-6 hours.
# The following examples were performed using the above described process with different rpm and time; the obtained results are tabulated below: […]
# [3] = Particle size distribution after wet milling in colloid mill (IKA MK 2000/05); details: water
# Description: as §1, §2
# Pirfenidone (Particle size distribution: D10: 1330 μm; D50: 1950 μm and D90: 2840 μm) and Water (3 vol) were charged into IKA colloid mill at 25° C. to 35° C. and circulated the reaction mass at 25° C. to 35° C. till required particle size was obtained. Particle size distribution of the sample with different time interval was monitored by collecting the sample from reaction mass. After achieving the required particle size, stirred the reaction mixture for 30-60 min at 25° C. to 35° C. Further, the reaction mixture temperature was allowed to cool to 0° C. to 5° C. and stirred for 2-3 hrs at same temperature. Filter the solid and washed with the wet cake with chilled water (0.5 vol), dried the solid in an oven under vacuum at 60° C. for 4-6 hours.
# The following examples were performed using the above described process with different circulation time and different rpm and obtained results are tabulated as below: […]
# [4] = 2000 RPM, stirring time 120 min
# [5] = 2000 RPM, stirring time 240 min
# [6] = 3000 rpm, circulation time 60 mim
# [7] = 3000 rpm, circulation time 120 mim
# [8] = 3000 rpm, circulation time 30 min
# [9] = 5000 rpm, circulation time 5 min
# [10] = 5000 rpm, circulation time 60 min
# [11] = 6000 rpm, circulation time 45 min
# [12] = 6000 rpm, circulation time 1 hour
# [13] = 6000 rpm, circulation time 2 hours, listed as 1A, 20 kg pirfenidone input
# [14] = 6000 rpm, circulation time 2 hours, listed as 1B, 200 kg pirfenidone input
# [15] = 6000 rpm, circulation time 3 hours, listed as 1A, 20 kg pirfenidone input
# [16] = 6000 rpm, circulation time 3 hours, listed as 1B, 200 kg pirfenidone input
# [17] = 6000 rpm, circulation time 4 hours, listed as 1A, 20 kg pirfenidone input
# [18] = 6000 rpm, circulation time 4 hours, listed as 1B, 200 kg pirfenidone input
# [19] = 6000 rpm, circulation time 5 hours, listed as 1A, 20 kg pirfenidone input
# [20] = 6000 rpm, circulation time 5 hours, listed as 1B, 200 kg pirfenidone input
# [21] = 6000 rpm, circulation time 6 hours, listed as 1A, 20 kg pirfenidone input
# [22] = 6000 rpm, circulation time 6 hours, listed as 1B, 200 kg pirfenidone input
# [23] = 6000 rpm, circulation time 7 hours
# [24] = 6000 rpm, circulation time 8 hours, listed as 1B, 200 kg pirfenidone input
# [25] = 6000 rpm, circulation time 8 hours, listed as 1C, 80 kg pirfenidone input
# [26] = 6000 rpm, circulation time 9 hours
# [27] = 6000 rpm, circulation time 10 hours, listed as 1B, 200 kg pirfenidone input
# [28] = 6000 rpm, circulation time 10 hours, listed as 1C, 80 kg pirfenidone input
# [29] = 6000 rpm, circulation time 12 hours, listed as 1B, 200 kg pirfenidone input
# [30] = 6000 rpm, circulation time 12 hours, listed as 1C, 80 kg pirfenidone input
# [31] = 6000 rpm, circulation time 14 hours
# [32] = 6000 rpm, circulation time 16 hours
# [33] = 6000 rpm, circulation time 19 hours
# [34] = 8000 rpm, circulation time 5 min
smiles,measurement,setting,value
"Cc1ccc(=O)n(-c2ccccc2)c1 [Pirfenidone, 5-methyl-1-phenyl-2-1(H)-pyridone]",Particle size distribution D10,[1],1330 μm
same,Particle size distribution D50,[1],1950 μm
same,Particle size distribution D90,[1],2840 μm
same,PSD D10,"[2]; 2000 RPM, stirring time 30 min",24 μm
same,PSD D50,"[2]; 2000 RPM, stirring time 30 min",82 μm
same,PSD D90,"[2]; 2000 RPM, stirring time 30 min",230 μm
same,PSD D10,"[2]; 2000 RPM, stirring time 60 min",24 μm
same,PSD D50,"[2]; 2000 RPM, stirring time 60 min",88 μm
same,PSD D90,"[2]; 2000 RPM, stirring time 60 min",200 μm
same,PSD D10,[2]; [4],21 μm
same,PSD D50,[2]; [4],75 μm
same,PSD D90,[2]; [4],165 μm
same,PSD D10,[2]; [5],21 μm
same,PSD D50,[2]; [5],71 μm
same,PSD D90,[2]; [5],154 μm
same,PSD D10,"[2]; 5000 RPM, stirring time 60 min",17 μm
same,PSD D50,"[2]; 5000 RPM, stirring time 60 min",48 μm
same,PSD D90,"[2]; 5000 RPM, stirring time 60 min",108 μm
same,PSD D10,"[2]; 7000 RPM, stirring time 60 min",13 μm
same,PSD D50,"[2]; 7000 RPM, stirring time 60 min",42 μm
same,PSD D90,"[2]; 7000 RPM, stirring time 60 min",91 μm
same,PSD D10,[3]; [6],12 μm
same,PSD D50,[3]; [6],33 μm
same,PSD D90,[3]; [6],123 μm
same,PSD D10,[3]; [7],13 μm
same,PSD D50,[3]; [7],33 μm
same,PSD D90,[3]; [7],82 μm
same,PSD D10,[3]; [8],28 μm
same,PSD D50,[3]; [8],87 μm
same,PSD D90,[3]; [8],185 μm
same,PSD D10,[3]; [9],11 μm
same,PSD D50,[3]; [9],40 μm
same,PSD D90,[3]; [9],99 μm
same,PSD D10,[3]; [10],11 μm
same,PSD D50,[3]; [10],36 μm
same,PSD D90,[3]; [10],89 μm
same,PSD D10,[3]; [11],41 μm
same,PSD D50,[3]; [11],48 μm
same,PSD D90,[3]; [11],285 μm
same,PSD D10,[3]; [12],30 μm
same,PSD D50,[3]; [12],105 μm
same,PSD D90,[3]; [12],206 μm
same,PSD D10,[3]; [13],28 μm
same,PSD D50,[3]; [13],72 μm
same,PSD D90,[3]; [13],165 μm
same,PSD D10,[3]; [14],34 μm
same,PSD D50,[3]; [14],124 μm
same,PSD D90,[3]; [14],257 μm
same,PSD D10,[3]; [15],26 μm
same,PSD D50,[3]; [15],61 μm
same,PSD D90,[3]; [15],143 μm
same,PSD D10,[3]; [16],34 μm
same,PSD D50,[3]; [16],116 μm
same,PSD D90,[3]; [16],236 μm
same,PSD D10,[3]; [17],23 μm
same,PSD D50,[3]; [17],54 μm
same,PSD D90,[3]; [17],129 μm
same,PSD D10,[3]; [18],32 μm
same,PSD D50,[3]; [18],106 μm
same,PSD D90,[3]; [18],222 μm
same,PSD D10,[3]; [19],22 μm
same,PSD D50,[3]; [19],53 μm
same,PSD D90,[3]; [19],117 μm
same,PSD D10,[3]; [20],33 μm
same,PSD D50,[3]; [20],106 μm
same,PSD D90,[3]; [20],217 μm
same,PSD D10,[3]; [21],21 μm
same,PSD D50,[3]; [21],49 μm
same,PSD D90,[3]; [21],107 μm
same,PSD D10,[3]; [22],29 μm
same,PSD D50,[3]; [22],101 μm
same,PSD D90,[3]; [22],200 μm
same,PSD D10,[3]; [23],31 μm
same,PSD D50,[3]; [23],94 μm
same,PSD D90,[3]; [23],200 μm
same,PSD D10,[3]; [24],28 μm
same,PSD D50,[3]; [24],84 μm
same,PSD D90,[3]; [24],187 μm
same,PSD D10,[3]; [25],21 μm
same,PSD D50,[3]; [25],57 μm
same,PSD D90,[3]; [25],132 μm
same,PSD D10,[3]; [26],28 μm
same,PSD D50,[3]; [26],80 μm
same,PSD D90,[3]; [26],180 μm
same,PSD D10,[3]; [27],27 μm
same,PSD D50,[3]; [27],69 μm
same,PSD D90,[3]; [27],155 μm
same,PSD D10,[3]; [28],22 μm
same,PSD D50,[3]; [28],55 μm
same,PSD D90,[3]; [28],122 μm
same,PSD D10,[3]; [29],25 μm
same,PSD D50,[3]; [29],61 μm
same,PSD D90,[3]; [29],150 μm
same,PSD D10,[3]; [30],22 μm
same,PSD D50,[3]; [30],54 μm
same,PSD D90,[3]; [30],121 μm
same,PSD D10,[3]; [31],21 μm
same,PSD D50,[3]; [31],47 μm
same,PSD D90,[3]; [31],98 μm
same,PSD D10,[3]; [32],21 μm
same,PSD D50,[3]; [32],47 μm
same,PSD D90,[3]; [32],96 μm
same,PSD D10,[3]; [33],22 μm
same,PSD D50,[3]; [33],46 μm
same,PSD D90,[3]; [33],93 μm
same,PSD D10,[3]; [34],9 μm
same,PSD D50,[3]; [34],35 μm
same,PSD D90,[3]; [34],85 μm
